Values quoted from earlier work as cited in patent publication US5690961A, “Acidic polysaccharides crosslinked with polycarboxylic acids and their uses” (Hercules Incorporated, priority 1994, dated 1997).

Conditions: in vivo

half-life of hyaluronic acid injected in a joint: about 13 hours
Substance: hyaluronic acid
